In patent publication US6313171A, “Method for preventing or treating elevated blood lipid level-related diseases by administering cinnamic acid derivatives” (Korea Research Institute of Bioscience & Biotechnology, priority 1998, dated 2001):

Key:
[1] = Plasma total cholesterol and HDL-cholesterol of rats fed a high-cholesterol diet; assay type: in vivo, rat (Sprague-Dawley); conditions: for HDL-C/TC ratio / HDL-C (HDL-cholesterol) / TC (Total cholesterol): 0.1% in 1% cholesterol diet, six weeks; for HDL-C/TC ratio: Control 28, listed as head is [formula]; for HDL-C (HDL-cholesterol): Control 38 ± 2; for TC (Total cholesterol): Control 135 ± 6; for increase of HDL-C/TC ratio / reduction of total plasma cholesterol level: as compared with control group
Description: 40 three-week-old white Sprague-Dawley rats (Taihan laboratory animal center, Korea), each weighing about 90 to 110 g, were evenly divided into four dietary groups by a randomized block design. The rats of the four groups were fed with four different high-cholesterol diets, i.e., AIN-76 laboratory animal diet (ICN Biochemicals, Cleveland, Ohio, U.S.A.) containing 1% cholesterol (Control group); 1% cholesterol plus 0.1% 4-hydroxycinnamic acid (4-hydroxycinnamic acid group); 1% cholesterol plus 0.1% 3,4-dihydroxycinnamic acid (3,4-dihydroxycinnamic acid group); and 1% cholesterol plus 0.1% 3,4-dihydroxyhydrocinnamic acid (3,4-dihydroxyhydrocinnamic acid group), respectively.
The rats were allowed to feed freely on the specified diet together with water for six weeks, the ingestion amount was recorded daily and the rats were weighed every 7 days, and then the record was analyzed.
The effects of administering cinnamic acid derivatives to rats on the plasma cholesterol and neutral lipid contents were determined as follows.
The rats of the four dietary groups obtained in Step 1 were sacrificed and blood samples were taken therefrom. The blood was allowed to stand for 2 hours and centrifuged at 3,000 rpm for 15 minutes and the supernatant was separated and stored in a deep freezer before use. The chemical analysis of blood was carried out by employing a blood chemical analyzer (CIBA Corning 550 Express, USA) to determine the changes in total cholesterol and HDL-cholesterol levels.

main artery = assay: Analysis for fatty streak in the main artery of rabbits; assay type: in vivo, rabbit (New Zealand White); conditions: for macrophage-lipid complex on the arterial endothelium: FIGS. 1A-1E, control: a thick layer; for Fatty streak: proportion of total arterial area, Oil Red O, rabbits, 8 weeks, Control 80 ± 8
Description: Cinnamic acid derivatives were purchased from Sigma Chemical Co. (St. Louis, Mo.). The rabbits were fed for 8 weeks while being allowed free access to the diets and water. The chest of each of the rabbits sacrificed in Step 2 was incised. […] The main artery was incised in the middle along the longitudinal axis and pinned to a dish. The moist artery was photographed and, then, the staining of fatty streaks was carried out in accordance with the method of […]., et al. (J. Lab. Clin. Med., 121, 103-110(1993)) as follows. A part of the incised main artery was washed three times with anhydrous propylene glycol for 2 min. and stained for 30 min. with a saturated solution of Oil Red O (ORO, Sigma Co.) dissolved in propylene glycol. Thereafter, the artery was washed twice with 85% propylene glycol for 3 min. to remove remaining staining solution and, then washed with physiological saline. The artery was photographed and the photograph was traced. The area of stained region (fatty streak region) was determined with an image analyzer (LEICA, Q-600, Germany) and its proportion (%) to the total arterial area was calculated.

ACAT [2] = assay: ACAT assay, liver microsomes of the fed rabbits; assay type: biochemical, rabbit; conditions: rabbits fed 0.1% in 1% cholesterol diet; Control 0
ACAT [3] = molecular target: T1, ACAT (Rattus norvegicus, UniProt Q7TQM4); assay: ACAT assay, liver microsomes of the fed rats; assay type: biochemical; conditions: liver microsomes of rats fed 0.1% in 1% cholesterol diet; Control 0
T1 construct: microsomes were separated from liver tissues to be used as an enzyme source; from tissue; host or cells: rat liver microsomes
T1 sequence (Q7TQM4 1-524): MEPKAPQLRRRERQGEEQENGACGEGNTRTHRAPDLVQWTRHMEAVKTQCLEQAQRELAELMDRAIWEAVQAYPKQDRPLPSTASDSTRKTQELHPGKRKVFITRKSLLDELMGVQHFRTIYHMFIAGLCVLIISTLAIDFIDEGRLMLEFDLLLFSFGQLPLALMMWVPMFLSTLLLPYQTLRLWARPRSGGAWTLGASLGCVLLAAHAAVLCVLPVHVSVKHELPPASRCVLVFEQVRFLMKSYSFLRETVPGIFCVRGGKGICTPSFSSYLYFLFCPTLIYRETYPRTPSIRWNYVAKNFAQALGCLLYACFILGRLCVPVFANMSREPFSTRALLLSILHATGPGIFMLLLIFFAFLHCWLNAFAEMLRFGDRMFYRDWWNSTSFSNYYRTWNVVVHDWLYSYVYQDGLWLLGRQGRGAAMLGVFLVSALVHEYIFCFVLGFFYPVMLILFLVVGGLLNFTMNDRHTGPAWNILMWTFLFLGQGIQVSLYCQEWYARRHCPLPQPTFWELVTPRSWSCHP
Description: To determine the effect of feeding cinnamic acid derivatives to rats on the activity of ACAT, microsomes were separated from liver tissues to be used as an enzyme source.
1 g each of the livers taken from each group of rats of Example 2 was homogenized in 5 ml of homogenization medium (0.1 M KH2 PO4, pH 7.4, 0.1 mM EDTA and 10 mM β-mercaptoethanol). The homogenate was centrifuged at 3,000×g for 15 min. at 4° C. and the supernatant thus obtained was centrifuged at 15,000×g for 15 min. at 4° C. to obtain a supernatant. The supernatant was put into an ultracentrifuge tube (Beckman) and centrifuged at 100,000×g for 1 hour at 4° C. to obtain microsomal pellets, which were then suspended in 3 ml of the homogenization medium and centrifuged at 100,000×g for 1 hour at 4° C. The pellets thus obtained were suspended in 1 ml of the homogenization medium. The protein concentration of the resulting suspension was determined by Lowry's method and then adjusted to 4 to 8 mg/ml. The resulting suspension was stored in a deep freezer (Biofreezer, Forma Scientific Inc.).
6.67 μl of 1 mg/ml cholesterol solution in acetone was mixed with 6 μl of 10% Triton WR-1339 (Sigma Co.) in acetone and, then, acetone was removed from the mixture by evaporation under a nitrogen flow. Distilled water was added to the resulting mixture to adjust the concentration of cholesterol to […].
Added to 10 μl of the resulting aqueous cholesterol solution were 10 μl of 1 M KH2 PO4 (pH 7.4), 5 μl of 0.6 mM bovine serum albumin (BSA), 10 μl of microsome solution obtained in (Step 1) and 55 μl of distilled water (total 90 μl). The mixture was pre-incubated in a water bath at 37° C. for 30 min. […]
200 μl of the resulting supernatant was put in a scintillation bottle and 4 ml of scintillation fluid (Lumac) was added thereto. The mixture was assayed for radioactivity with 1450 Microbeta liquid scintillation counter (Wallacoy, Finland). ACAT activity was calculated as picomoles of cholesteryl oleate synthesized per min. per mg protein (pmoles/min/mg protein).

SMILES	HDL-C/TC ratio [1]	HDL-C (HDL-cholesterol) [1]	TC (Total cholesterol) [1]	increase of HDL-C/TC ratio [1]	reduction of total plasma cholesterol level [1]	macrophage-lipid complex on the arterial endothelium (main artery)	Fatty streak (main artery)	Inhibition on ACAT activity (ACAT [2])	Inhibition on ACAT activity (ACAT [3])
O=C(O)/C=C/c1ccc(O)c(O)c1 [3,4-dihydroxycinnamic acid]	33	39 ± 3 mg/dL	118 ± 6 mg/dL	18%	13%	no or very thin layers of macrophage-lipid complex	13 ± 5%	33%	7%
O=C(O)CCc1ccc(O)c(O)c1 [3,4-dihydroxyhydrocinnamic acid]	35	45 ± 4 mg/dL	127 ± 4 mg/dL	25%	6%	no or very thin layers of macrophage-lipid complex	16 ± 1%	37%	20%
O=C(O)/C=C/c1ccc(O)cc1 [4-Hydroxycinnamic acid, 4-hydroxycinnamic acid]	56	57 ± 3 mg/dL	102 ± 6 mg/dL	100%	24%	no or very thin layers of macrophage-lipid complex	24 ± 11%	9%	17%
